This note sets out measurements from patent US4190675A (priority 1976, dated 1980).

Data set [1] relates to isolated Guinea-pig trachea. Briefly: Relaxation of the isolated Guinea-pig trachea (Costantine). The class given is cell-based. The conditions noted are these: for activation at 125 µg/mL: 125 μg/ml; for activation at 125 µg/mL / activation at 500 µg/mL / activation at 2000 µg/mL: average of 4 preparations; for activation at 500 µg/mL: 500 μg/ml; for activation at 2000 µg/mL: 2,000 μg/ml; for relaxation of the smooth tracheal muscles, intensity compared with Fraction 2 and sobrerol (in words): in vitro, isolated Guinea-pig trachea; for bronchodilating activity, grade (in words): overall, in vitro and in vivo.

Data set [2] has as its system rabbits. Briefly: Inhibition of histamine-induced bronchospasm by intravenous perfusion in rabbits. The class given is in vivo. The conditions noted are these: for Percentage of inhibition of the histamine-induced bronchospasm: histamine 100 micrograms/kg i.v., average of 4 animals; for inhibition of histamine-induced bronchospasm compared with Fraction 2 and sobrerol (in words): perfused intravenously 2.5 mls per kg b.w. per minute.

A further data set deals with Staphylococcus aureus. Kind of data set: Antibacterial activity (MIC), Staphylococcus aureus. The class given is cell-based. To be noted: for antibacterial activity, grade (in words): Gram-positive germs / overall; for antibacterial activity compared with Fraction 2 and sobrerol (in words): Staphylococcus aureus and Escherichia coli; for MIC: read-out: Minimum Inhibiting Concentration (MIC).

For another data set, the system named is Escherichia coli. Briefly: Antibacterial activity (MIC), Escherichia coli. The class given is cell-based. To be noted: for MIC: read-out: Minimum Inhibiting Concentration (MIC); for antibacterial activity, grade (in words): Gram-negative germs.
In data set [3] the test system is rats. Briefly: Carrageenin-induced paw oedema in rats (Winter). The class given is in vivo, albino rats, COBS (Charles River) stock. The conditions noted are these: for % inhibition of plantar oedema / inhibition of carrageenin paw oedema compared with Fraction 2 and sobrerol (in words): 30 mg/kg b.w. intraperitoneally; for % inhibition of plantar oedema: after 4 hours, 6 animals. On the technique in general: In the carrageenan paw model, swelling and tenderness develop within hours.

The test system of the next data set is thrombocyte aggregation. Kind of data set: Inhibition of thrombocyte aggregation from ADP in vitro (Born and Cross). Format: cell-based. To be noted: for inhibition of thrombocyte aggregation compared with Fraction 2 and sobrerol (in words): 160 to 1,280 micrograms/ml, ADP, in vitro; for inhibition at 160 µg/mL: final concentration 160 μg/ml; for inhibition at 160 µg/mL / inhibition at 320 µg/mL / inhibition at 640 µg/mL / inhibition at 1280 µg/mL: average of repeated tests; for inhibition at 320 µg/mL: final concentration 320 μg/ml; for inhibition at 640 µg/mL: final concentration 640 μg/ml; for inhibition at 1280 µg/mL: final concentration 1280 μg/ml.

Another data set has as its system mice. To be noted: for Gleason classification: mice.
The nature of data set [4]: Acute toxicity in rabbits (LD50, Litchfield and Wilcoxon). Format: in vivo. To be noted: rabbit, in vivo, fiducial limits 95%.
Data set [5] relates to rabbits. The description is as above. The class given is in vivo.
The subject of another data set is red blood cells of rats. Briefly: Protection of red blood cells from haemolysis induced by Tween 80, in vitro. The conditions noted are these: Rattus norvegicus, Erythrocyte, Tween 80. Format: cell-based. An excerpt: (fiducial limits 95% : 518.0-760.11).
The test system of another data set is dogs. Briefly: Reduction of lung resistance in anesthetized dogs (Diamond). Format: in vivo. To be noted: intravenous; for Percentage reduction of the Lung Resistance: average for 4 animals.
The test system of data set [6] is isolated Guinea-pig trachea. Kind of data set: Inhibition of histamine-induced contractions of the isolated Guinea-pig trachea. Format: cell-based. To be noted: histamine 10^-5 M, average. The source says: In addition, at concentrations in the range of from 10^-3 M to 5.10^-3 M, it inhibits the histamine-induced contractions of the isolated Guinea-pig trachea (Histamine 10^-5 M, see TABLE 3).

The next data set is described as follows: in vivo. To be noted: mouse, LD50, mice, fiducial limits 95%.
Data set [7] deals with rats. Briefly: Turpentine-induced pleuritis in rats (Hurley). The class given is in vivo. To be noted: for Exudate / Inhibition: P <0.01.
Where [8] appears, read: Cavia porcellus, read-out: Percentage of relaxation of the isolated Guinea-pig trachea.
Where [9] appears, read: intravenous perfusion 15 minutes.
Where [10] appears, read: intravenous perfusion 30 minutes.
Where [11] appears, read: intravenous perfusion 60 minutes.
Setting [12] is: read-out: Thrombocyte aggregation % INHIBITION

Values after ≈ are worked out from the molar mass of the structure shown. “Also recorded” adds a separate entry of the source. Like-named read-outs stand apart in the source and are kept apart here.

For `CC1=CCC(C(C)(C)O)CC1O` (centres unmarked) [Sobrerol, sobrerol, reference compound], in [1] (setting [8]), the percent relaxation of trachea at 125 µg/mL came to 1.87%, the percent relaxation of trachea at 500 µg/mL stood at 5.62% and the percent relaxation of trachea at 2000 µg/mL is 20.8%. In the data set with rabbits [2] (setting [9]), the “Percentage of inhibition of the histamine-induced bronchospasm” value was 2.15%. For the same molecule, in the data set on rabbits [2] (setting [10]), the “Percentage of inhibition of the histamine-induced bronchospasm” value is given as 1.15%. Besides, the “Percentage of inhibition of the histamine-induced bronchospasm” value in the data set with rabbits [2] (setting [11]) turned out to be 3.97%. For the same molecule, in the data set with Staphylococcus aureus (Staphylococcus aureus), the “Minimum Inhibiting Concentration (MIC)” value was “.infin”. The “Minimum Inhibiting Concentration (MIC)” value in the data set with Escherichia coli (Escherichia coli) is “.infin”. The “% inhibition of plantar oedema” value with rats [3] came to 11%. Moreover, in the data set with thrombocyte aggregation (setting [12]), the inhibition – broadly, the relative decrease from the control value, in per cent – at 1000 µg/mL was 4%; the inhibition at 1500 µg/mL was 12%; the inhibition at 2000 µg/mL came out at 24%; the inhibition at 4000 µg/mL was found to be 32%.

For the molecule `CC1=CC(=O)[C@@H]2C[C@H]1C2(C)C` [Verbenone, verbenone], the “tolerability on the basis of acute toxicity data” value with mice (mice and rabbits, i.p. and p.o.) is recorded as “well tolerated”. The Gleason classification result with mice (i.p.) is recorded as “Poor”; with mice (p.o.), “Slight”; with rabbits [5] (i.p.), “Poor”; in the data set on rabbits [5] (p.o.) it was “Poor”. For the same molecule, in data set [1] (setting [8]), the activation at 125 µg/mL worked out at 26.2%. Also, the activation at 500 µg/mL in [1] (setting [8]) was found to be 61.2%. Moreover, in data set [1] (setting [8]), the activation at 2000 µg/mL came out at 71.4%. Moreover, in data set [1], the “relaxation of the smooth tracheal muscles, intensity compared with Fraction 2 and sobrerol (in words)” value is “significantly higher than that of the terpenes of the fraction 2 and also than that of sobrerol”. Moreover, in [1], the “bronchodilating activity, grade (in words)” value is on record as “pronounced bronchodilating action; also recorded: pronounced bronchodilating activity”. Further, the LD50 (as a rule, the dose at which mortality reaches 50%) in [4] (ip, female) is 232 mg/kg; in data set [4] (ip, male) it was 310 mg/kg; in data set [4] (po, female), 655 mg/kg; in [4] (po, male) it was 790 mg/kg; in the data set “in vivo” (ip, female), 325 mg/kg; in the data set “in vivo” (ip, male) it was 361 mg/kg. Besides, the 50% lethal dose (LD50) turned out to be 1530 mg/kg in “in vivo” (po, female) and 1410 mg/kg in “in vivo” (po, male). Moreover, the figures for the “Percentage of inhibition of the histamine-induced bronchospasm” value with rabbits [2] (setting [9]), with rabbits [2] (setting [10]) and with rabbits [2] (setting [11]) were 36.25%, 46.27% and 73.32%, respectively. Further, the “inhibition of histamine-induced bronchospasm compared with Fraction 2 and sobrerol (in words)” value in the data set with rabbits [2] was “statistically higher than that of the terpenes of the fraction 2 and also than that of sobrerol”. Moreover, the “antibacterial activity, grade (in words)” value in the data set on Staphylococcus aureus and in the data set on Escherichia coli was “poor antibacterial activity” throughout. Also, the “antibacterial activity compared with Fraction 2 and sobrerol (in words)” value with Staphylococcus aureus was “as active as Fraction 2 and more active than sobrerol”. Further, the MIC in the data set on Staphylococcus aureus (Staphylococcus aureus) and in the data set with Escherichia coli (Escherichia coli) was 800 µg/mL (≈ 5.33 mM) each time. The EC50 in the data set with red blood cells of rats (fiducial limits 95%: 518.0-760.11, read-out: effective concentration 50% (EC 50), protection from haemolysis) stood at 640 µg/mL (≈ 4.26 mM). Further, the “Percentage reduction of the Lung Resistance” value in the data set with dogs (0.6 mgs/kg b.w.) is listed as 7.175%; in the data set with dogs (1.2 mgs/kg b.w.) it was 10.85%; in the data set with dogs (2.4 mgs/kg b.w.), 22.225%; in the data set with dogs (4.8 mgs/kg b.w.), 30.6%. Moreover, in the data set with dogs (0.6 to 4.8 mgs/kg b.w.), the “reduction of the lung resistances (in words)” value is recorded as “pronounced reduction of the lung resistances”. In addition, the “% inhibition of plantar oedema” value in the data set on rats [3] stood at 29%. For the same molecule, in the data set with rats [3] (normal and suprarenalectomized rats), the “inhibition of carrageenin paw oedema compared with Fraction 2 and sobrerol (in words)” value is “significantly improved over those of the fraction 2 and of sobrerol”. In addition, the “inhibition of thrombocyte aggregation compared with Fraction 2 and sobrerol (in words)” value in the data set with thrombocyte aggregation is “higher than that of the terpenes of the Fraction 2 and of sobrerol”. This molecule registered an inhibition at 160 µg/mL in the data set on thrombocyte aggregation of 0%. Further, in the data set with thrombocyte aggregation, the inhibition at 320 µg/mL is 6%. Besides, in the data set on thrombocyte aggregation, the inhibition at 640 µg/mL is 44%. For the same molecule, at 1280 µg/mL the inhibition in the data set with thrombocyte aggregation was 100%. The “Percentage of inhibition of the histaminic spasm due to relaxation of the smooth tracheal muscles” value in data set [6] (5.10^-3 M) worked out at 96.8%. Also, in [6] (Cavia porcellus, 10^-3 M, read-out: Percentage of inhibition of the histaminic spasm due to relaxation of the smooth tracheal muscles), the inhibition at 1000 µM is 29.2%. Moreover, the “antiexudative activity compared with aspirin (in words)” value in the data set with rats [7] (36 and 120 mg/kg b.w. intraperitoneally) is recorded as “intense antiexudative activity in the experimental, turpentine-induced pleuritis (Hurley, J. V. et al., J. Path., 91, 575,1966) to a degree which can be compared to that of aspirin”. In addition, the Exudate came to 1.23 mls with rats [7] (36 mgs/kg intraperitoneal) and 0.97 mls in the data set with rats [7] (120 mgs/kg intraperitoneal). The values for the Inhibition in the data set with rats [7] (36 mgs/kg intraperitoneal) and in the data set on rats [7] (120 mgs/kg intraperitoneal) were 37.6% and 50.1%, respectively.

For `CC1(C)C2CC=C(C=O)C1C2` (centres unmarked) [Myrtenal, myrtenal], in data set [1] (setting [8]), the activation at 125 µg/mL amounted to 7.5%, the activation at 500 µg/mL came out at 47.5% and the activation at 2000 µg/mL is 62.5%. For the same molecule, in data set [1], the “relaxation of the smooth tracheal muscles, intensity compared with Fraction 2 and sobrerol (in words)” value was “statistically higher than that of the Fraction 2 and that of sobrerol”; the “bronchodilating activity, grade (in words)” value was “fair bronchodilating activity”. In the data set on rabbits [2] (setting [9]), the “Percentage of inhibition of the histamine-induced bronchospasm” value is on record as 25.4%. The “Percentage of inhibition of the histamine-induced bronchospasm” value in the data set on rabbits [2] (setting [10]) came to 20.4%. In the data set on rabbits [2] (setting [11]), the “Percentage of inhibition of the histamine-induced bronchospasm” value was determined as 28.8%. Moreover, the “inhibition of histamine-induced bronchospasm compared with Fraction 2 and sobrerol (in words)” value in the data set with rabbits [2] was “statistically higher than that of sobrerol and slightly lower than that of Fraction 2”. Also, in the data set with Staphylococcus aureus, the “antibacterial activity, grade (in words)” value is recorded as “pronounced antibacterial activity on Gram-positive germs”; the “antibacterial activity compared with Fraction 2 and sobrerol (in words)” value is “more active both than Fraction 2 and sobrerol”. Besides, the “antibacterial activity, grade (in words)” value with Staphylococcus aureus (listed as myrtenal) is “marked antibacterial action”. In the data set on Staphylococcus aureus (Staphylococcus aureus), the MIC is 200 µg/mL (≈ 1.33 mM). The EC50 with red blood cells of rats (80 to 500 micrograms/ml, fiducial limits 95%=112.3-189.9, read-out: Effective Concentration 50%, protection from haemolysis) stood at 157 µg/mL (≈ 1.05 mM). Moreover, the MIC with Escherichia coli (Escherichia coli) was found to be 800 µg/mL (≈ 5.33 mM). Moreover, the “antibacterial activity, grade (in words)” value with Escherichia coli is “less intense on Gram-negative ones”. Moreover, the “% inhibition of plantar oedema” value in the data set with rats [3] came out at 30%. For the same molecule, the “anti-inflammatory action, grade (in words)” value in the data set on rats [3] (overall summary) is recorded as “anti-inflammatory action of poor magnitude”. For the same molecule, the “inhibition of carrageenin paw oedema compared with Fraction 2 and sobrerol (in words)” value with rats [3] (rats) is “more intense than that of Fraction 2 and also than that of sobrerol”. Moreover, in the data set on thrombocyte aggregation, the “inhibition of thrombocyte aggregation compared with Fraction 2 and sobrerol (in words)” value was “higher than those of Fraction 2 and sobrerol”; the inhibition at 160 µg/mL is 0%; the inhibition at 320 µg/mL stood at 12%; the inhibition at 640 µg/mL amounted to 20%. The molecule also showed an inhibition at 1280 µg/mL with thrombocyte aggregation of 75%.

On to `CC(=O)Oc1ccccc1C(=O)O` [Aspirin, aspirin, reference compound], for which, in the data set with rats [7] (100 mgs/kg intraperitoneal), the Exudate is reported as 1.30 mls and the Inhibition (as a rule, the change of the read-out against control, counted positive when it falls) came out at 34%.
